According to PubChem BioAssay (NCI):
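Where inhibition never reached the appropriate level, the endpoint shown equals the highest concentration tested. Otherwise, values were interpolated linearly from a five-concentration, 48-hour dose response in 96-well plates. TGI: total growth inhibition.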

What was measured:
Assay in all cases: NCI tumour cell line growth inhibition, 48 h
[1] = test system: A498 renal
[2] = test system: NCI-H23 lung
[3] = test system: HCT-15 colon
[4] = test system: HT29 colon
[5] = test system: DLD-1 colon
[6] = test system: OVCAR-5 ovarian
[7] = test system: SNB-78 CNS
[8] = test system: HCC-2998 colon
[9] = test system: HCT-116 colon
[10] = test system: SN12C renal

In the case of `C/C(CCN(C)C)=N/O`, the TGI [1] is reported as 35.1 µM, the TGI [2] is reported as 25.5 µM and the TGI [3] is reported as 25.1 µM. The TGI [4] was 10.3 µM, the TGI [5] was 15.8 µM and the TGI [6] was 32.9 µM. The TGI [7] was 51.7 µM, the TGI [8] was 25.2 µM and the TGI [9] was 12.5 µM. The TGI [10] was 27.3 µM.

`CCCCCCCCCCCCCCCCNc1nc(=O)n(C2OC(C)C(O)C2O)cc1F` (centres undefined) gave a TGI [1] of 39.1 µM, a TGI [2] of 32.7 µM and a TGI [3] of 29.1 µM. For the same molecule, the TGI [4] was 31.2 µM, the TGI [6] was 36.7 µM and the TGI [8] was 31 µM. The TGI [9] was 36.7 µM and the TGI [10] was 40.6 µM.

With `COCc1cc2c(s1)C(=O)C1=C(C2=O)C2(C=C(Br)C(=O)C(Br)=C2)CCN1` the TGI [1] was 29.6 µM, the TGI [2] was 9.51 µM and the TGI [3] was 14.7 µM. It also gave a TGI [4] of 12.9 µM, a TGI [5] of 24.4 µM and a TGI [6] of 29.5 µM. It also gave a TGI [7] of 24.4 µM, a TGI [8] of 24.8 µM and a TGI [9] of 3.11 µM. It also gave a TGI [10] of 20.4 µM.

Work on `Cc1cc(NC(=O)NC(=O)c2ccccc2NC(=O)CN(C)C)ccc1Oc1ncc(Br)cn1` yielded a TGI [1] of 17 µM, a TGI [2] of 65.9 µM and a TGI [3] greater than 100 µM. It also gave a TGI [4] of 31.1 µM, a TGI [5] greater than 100 µM and a TGI [6] greater than 100 µM. It also gave a TGI [7] greater than 100 µM, a TGI [8] of 6.05 µM and a TGI [9] greater than 79.4 µM. For the same molecule, the TGI [10] was greater than 100 µM.

With `CCOC(=O)CNC(=O)c1[nH]cnc1/N=N/N(C)C` the TGI [1] was greater than 100 µM, the TGI [2] was greater than 100 µM and the TGI [3] was greater than 100 µM. For the same molecule, the TGI [4] was greater than 100 µM, the TGI [5] was greater than 100 µM and the TGI [6] was greater than 100 µM. The TGI [8] was greater than 100 µM, the TGI [9] was greater than 100 µM and the TGI [10] was greater than 100 µM.

`CC(C)OC(=O)C(NC(=O)C(CC(=O)OCc1ccccc1)NC(=O)OCc1ccccc1)NC(=O)C1C(C)(C)CCC1(C)C` (centres undefined) was tested, and the TGI [1] was 4.37 µM, the TGI [2] was 23.9 µM and the TGI [3] was 30.7 µM. The TGI [4] was 14.3 µM, the TGI [6] was greater than 55.6 µM and the TGI [8] was greater than 56.5 µM. It also gave a TGI [9] of 12 µM and a TGI [10] of 15.1 µM.

In the case of `CC(=O)Oc1cc2c(cc1OCC(F)(F)F)[C@H]1CC[C@]3(C)[C@@H](OC(C)=O)CC[C@H]3[C@@H]1CC2=O`, the TGI [1] is reported as 27 µM, the TGI [2] is reported as greater than 68.8 µM and the TGI [3] is reported as greater than 88 µM. It also gave a TGI [4] greater than 63.8 µM, a TGI [6] of 44.5 µM and a TGI [8] of 67.3 µM. It also gave a TGI [9] of 55 µM and a TGI [10] of 57.6 µM.

Work on `COc1cccc2c(=O)oc(-c3ccccc3C)nc12` yielded a TGI [1] greater than 100 µM, a TGI [2] greater than 100 µM and a TGI [3] greater than 100 µM. It also gave a TGI [4] greater than 100 µM, a TGI [6] greater than 100 µM and a TGI [8] greater than 100 µM. It also gave a TGI [9] greater than 100 µM and a TGI [10] of 69.4 µM.

`C[C@H]1CCC/C=C/[C@@H]2C[C@H](OC3OC(CO)C(O)C(O)C3O)C[C@H]2[C@H](O)/C=C/C(=O)O1` (some centres undefined) showed a TGI [1] of 69.1 µM, a TGI [2] greater than 100 µM and a TGI [3] greater than 100 µM. For the same molecule, the TGI [4] was greater than 100 µM, the TGI [6] was greater than 100 µM and the TGI [8] was greater than 100 µM. The TGI [9] was greater than 100 µM and the TGI [10] was greater than 100 µM.
